# Source: patent publication US20230135366A1, “LIPOIC ACID CHOLINE ESTER COMPOSITIONS AND METHODS TO STABILIZE INTO […] RELEVANT DRUG PRODUCTS” (NOVARTIS AG, priority 2016, published 2023)
# Like-named read-outs stand apart in the source and are kept apart here.
# Experiments:
# bovine calf cornea [1] = tested on: bovine calf cornea
# Method: (§1) LACE is delivered from these formulations as one of two salts: LACE-chloride and LACE-iodide. […] Therefore, both LACE and lipoic acid concentrations were assayed at each time point to evaluate permeability.
# (§2) • a. 6 bovine eyeballs are dissected in a sterile laminar flow hood. • b. The corneas are extracted from the eyeball, briefly rinsed in sterile double-distilled water, and submerged in 3 mL of glutathione buffer (0.1% glutathione, oxidized, 6 mM sodium phosphate, pH 7, sterile-filtered) in a sterile culture dish. • c. The corneas are kept at 5° C. and used within 24 hours of excision. • d. Six 5 mL Franz vertical diffusion cells are cleaned with distilled water and isopropanol and air dried in a laminar flow cabinet prior to set up. • e. A small stir bar is placed within the receptor fluid chamber. The bottle of receptor fluid (5 mM phosphate-buffered saline with 0.1% Tween 20, pH 7.4, sterile-filtered) is tared on an analytical balance, and 4.5 mL of it is added to each Franz cell. The exact weight of the starting receptor fluid is recorded. • f. The cornea is gently rinsed of glutathione buffer with receptor fluid, and is placed on the donor pedestal. The donor chamber is placed on top of the cornea, and the entire assembly is fastened to the pedestal with a metal clip. At this point, 0.5 mL of additional receptor fluid is added via the sampling arm, until the fluid level reaches the point marked on the arm with a black line. The weight of this addition is also recorded. • g. The Franz diffusion apparatus is connected to a heater unit, and the temperature is raised to 37° C. When that temperature is reached, the formulation (“the donor solution”) is added to the donor chamber. • h. 0.2 mL of donor solution is added. Both the donor chamber and sampling arm are covered by paraffin when not in use to prevent evaporation. • i. Sampling is done via Drummond pipet, and only through the sampling arm. 200-300 μL of receptor fluid is sampled from each cell at each time point. • j. The sample is added to an amber glass HPLC vial with 0.3 mL glass insert, and is weighed. […]
# [2] = RP-HPLC (UV / ELSD) measurement of LACE micellar / associative (aggregated) species; type: physicochemical; conditions: for equilibrium concentration of aggregates (% of the API peak): aqueous solution
# Source text: While searching for causes for irritation, it was discovered that LACE, when dissolved in water, forms micelles and micellar aggregates, common to compounds that are amphiphilic in nature. As definition, examples of micelle-forming compounds are phosphatidyl choline, pegylated phosphatidyl choline, PEG-stearate, […], etc. While the micelle-formation phenomenon of LACE is not unexpected due to the amphiphilic nature of the molecule, the formation of these aggregates at lower temperatures were surprising. The presence of the aggregates was measured by a RP-HPLC method developed in-house. The measurement could be performed both with HPLC-UV and HPLC-ELSD. […] The equilibrium concentration of LACE Iodide aggregates are 39-41% of the API peak. In comparison, the equilibrium concentration of LACE chloride is <1%, after dispersion with agitated stirring.
# • Two 200-g batches of 1.5% LACE Chloride were prepared at 25° C. after vehicle was deoxygenated with bubbled nitrogen. […] At time-points of 1 h, 3 h, 4 h, 6 h, 8 h, 9 h, and 24 h, about 5-15 mL was removed by syringe and sterile-filtered into eye-dropper bottles (5 mL/bottle), without nitrogen overlay in the bottle (apparatus was in use for the bulk batches). • Samples of all time-points were diluted to 10 mg/g, and then injected for RP-HPLC analysis with ELK.) detection within 30 minutes of removal from the bulk solution. • After the 24-hour time-point, bulk solutions were sterile-filtered, and each divided into two ˜50 mL portions—one held at 5° C., the other 50-mL portion held at 25° C. All portions were overlaid with nitrogen blown into the vessel. • At the end of the additional 24-hour hold time, each portion was filled into eye-dropper bottles with a nitrogen overlay in the bottle.
# The final diluted LACE concentration was targeted to the level appropriate for RP-HPLC analysis (12.8 mg/mL of LACE-Iodide).
# The approach was to generate complete inclusion complexes of LACE-Iodide in HP-B-CD, thus preventing any opportunity of aggregation of LACE molecules. Several batches of formulation were prepared using varying molar ratios of LACE-Iodide to HP-B-CD and the growth of aggregative species assessed over time. The formulations were stored at 5° C. The formation of associative species as measured by reverse phase HPLC was then reported as the area percent relative to the main LACE peak area.
# [3] = Osmolality of formulation; type: physicochemical
# Method: • The requisite osmolality range for drug-containing formulations and placebo is 280-320 mOsm/kg. Preferably, all LACE formulations need to he within 290-310 mOsm/Kg. • Since LACE has contributions to osmolality, each formulation will have varying concentrations of glycerol to achieve the requisite osmolality.
# The target for Total Osmolality was 300 mOsm/kg.
# Accordingly, a full series of solutions was prepared with slightly altered target osmolalities for the solutions without LACE, and therefore different target glycerol contents. All solutions were prepared using the same Alanine/Benzalkonium Chloride, pH 4.5 stock solution used in the placebos, so that the final composition was consistently: • 0.5% (5 mg/g) Alanine • 0.005% (0.05 mg/g) Benzalkonium Chloride • Small amounts of 1N Sodium Hydroxide, 1N Hydrochloric Acid, to adjust pH to 4.5 • Water for Inhalation (added to final weight of 5.0 g per formulation)
# ocular surface = assay: Ocular irritation in rabbit irritation model (rabbit Draize model); type: in vivo
# Source text: Another issue that confounded the pharmaceutical development of LACE ophthalmic solutions was incidences of ocular surface irritation observed in-vivo in a rabbit irritation model. The invention details unexpected parameters that contributed to, or caused ocular irritation and processes to eliminate or minimize these parameters. These parameters were not related to the formulation composition or properties of the drug substance, factors that normally correlated or attributed to ocular irritation.
# FIGS. 12A and 12B generally provide a snapshot of the correlation of irritation to the micellar LACE species over a number of batches compounded.
# Example 16 established the correlation between concentration of associative species and ocular irritation in an in-vivo model (rabbit Draize model).
# [4] = HPLC related compounds / related substances (oxidized LACE, lipoic acid, total impurities) of LACE solutions, mixing and stability studies; type: physicochemical
# Method: Each of the solutions was also measured for degradants of lipoic acid choline ester. As mentioned earlier, the degradation mechanism of LACE is oxidative and hydrolytic, resulting in oxidized and hydrolyzed species.
# • a) HPLC Method Setup: The HPLC assay consisted of a 50 minute mobile phase gradient made up of (A) 0.05M sodium phosphate monobasic, 0.005M 1-heptane sulfonic acid sodium salt, 0.2% v/v triethylamiue, adjusted to pH 4.5 with phosphoric acid; and (B) acetonitrile. The analytical column used is a YMC Pack ODS AO (4.6×250 mm, 5 μm, 120 Å), P/N AQ125052546WT; the analytical detection wavelength is 225 nm.
# The eve dropper bottles with the two formulations were stored at 25° C. in a temperature-controlled incubator, and 0.5 mL (about 10 drops) sampled at each time point for analysis of related substances (by HPLC). The nitrogen blanket was not replenished, so some air got into the bottle with each sampling. This experiment was an early investigation of stability at room temperature (25±0.1° C.) with no protection from oxygen with continued sampling.
# For the stability studies on both the clinical LACE-Chloride and the prototype LACE-Iodide formulation with a 1:1 molar ratio of HP-B-CD to LACE, the formulations were filtered, filled into LDPE eye dropper bottles, blanketed with nitrogen, and then placed inside barrier foil pouches with an oxygen scavenger. It is likely that some oxygen was still present in the pouch to start. After the first time point following T=0, however, the rise in oxidized LACE species stops, even at elevated temperatures, likely due to depletion of the remaining oxygen (FIG. 20).
# [5] = Appearance of ophthalmic solution in stability studies; type: physicochemical; conditions: API (Lot# 011510)
# Method: in an effort to stabilize the drug formulation further, systematic stability studies (5° C., 25° C. and 40° C.) on mid-scale R&D batches were undertaken with bottled EV06 Ophthalmic Solution in the presence and absence of oxygen scavenging packets contained in zip-lock, vapor impermeable foil pouches.
# bovine calf cornea [6] = assay: Corneal permeability, Franz Cell Diffusion apparatus; conditions: Study 1
# Method: as §1, §2
# [7] = General properties of LACE (solubility, solution pH, Log P, hygroscopicity); type: physicochemical; conditions: for solubility: read-out: Solubility Profile
# [8] = API (drug substance), lot AC-LACE-05-39 stored at 5 °C
# [9] = Table 16-3, API (drug substance)
# [10] = Table 17-1, API (drug substance)
# [11] = Table 17-2, API (drug substance)
# [12] = Table 17-3, API (drug substance)
# [13] = Table 18-1, API (drug substance)
# [14] = Table 18-2, API (drug substance)
# [15] = API (Lot# 011510), RS analyzed Mar. 22, 2016
compound,measurement,setting,value
C[N+](C)(C)CCOC(=O)CCCCC1CCSS1.[I-] (stereo not shown) [LACE Iodide],overall percent of drug permeated,bovine calf cornea [1],3-7%
same,permeated species,bovine calf cornea [1],almost entirely lipoic acid
same,equilibrium concentration of aggregates (% of the API peak),[2],39-41%
same,aggregated species (% of the API),[2]; at the end of 8 hours of mixing,≤ 39%
same,% Associative Species at T0,"[2]; direct dissolution: Buffer with 0.6% NaCl, 1.5% PG",40.9%
same,% Associative Species at T0,[2]; direct dissolution: Buffer with 1.8% NaCl,34.7%
same,% Associative Species at T0,"[2]; direct dissolution: Ethanol (78% final), then Buffer (22%)",0.0%
same,% Associative Species at T0,"[2]; direct dissolution: Propylene Glycol (10%), then Buffer (90%)",11.7%
"C[N+](C)(C)CCOC(=O)CCCC[C@@H]1CCSS1 [LACE, lipoic acid choline ester]","additional osmolality for every 1% LACE, average",[3]; earlier formulations,48 mOsm/kg
same,additional osmolality for every 1% LACE,"[3]; earlier formulations, range",44-55 mOsm/kg
same,effect of LACE on osmolality for every 1%,[3]; from Table 6 solutions,57-60 mOsm/kg
same,ocular irritation,ocular surface; compounded at room temperature,comfortable and non-irritating
C[N+](C)(C)CCOC(=O)CCCC[C@@H]1CCSS1.[Cl-] [API],Related Substances RRT 1.00 API,[4]; API (drug substance),99.13 Area %
same,Related Substances RRT 1.65,[4]; API (drug substance),0.34 Area %
same,Related Substances RRT 4.05 Lipoic Acid,[4]; API (drug substance),0.13 Area %
same,"Related Substances, RRT 0.49",[4]; API (drug substance),0.19 Area %
same,"Related Substances, RRT 0.61 Oxidized Lace",[4]; API (drug substance),0.04 Area %
same,"Related Substances, RRT 0.68 Oxidized Lace",[4]; API (drug substance),0.04 Area %
same,"Related Substances, RRT 1.36",[4]; API (drug substance),0.34 Area %
same,"Related Substances, RRT 1.52",[4]; API (drug substance),0.34 Area %
same,"Related Substances, RRT 1.73",[4]; API (drug substance),0.17 Area %
same,"Related Substances, RRT 1.86",[4]; API (drug substance),0.17 Area %
same,"Related Substances, RRT 4.11 Lipoic Acid",[4]; API (drug substance),0.13 Area %
same,Total Impurities,[4]; API (drug substance),0.87 Area %
same,Related Substances RRT 0.51,"[4]; API (drug substance), lot AC-LACE-05-21 stored at 5 °C",0.19 Area %
same,Related Substances RRT 0.51,[4]; [8],0.10 Area %
same,Related Substances RRT 2.28,[4]; [8],0.17 Area %
same,Related Substances RRT 2.28,"[4]; API (drug substance), lot AC-LACE-05-39 stored at 25 °C",0.13 Area %
same,Related Substances RRT 0.51,[4]; [9],0.10 Area %
same,Related Substances RRT 0.68,[4]; [9],0.04 Area %
same,Related Substances RRT 1.00,[4]; [9],99.13 Area %
same,Related Substances RRT 1.65,[4]; [9],0.34 Area %
same,Related Substances RRT 2.28,[4]; [9],0.17 Area %
same,Related Substances RRT 4.05,[4]; [9],0.13 Area %
same,Total Impurities,[4]; [9],0.87 Area %
same,Related Substances RRT 0.50,[4]; [10],0.20 Area %
same,Related Substances RRT 0.59,[4]; [10],0.04 Area %
same,Related Substances RRT 1.27,[4]; [10],0.34 Area %
same,Related Substances RRT 1.42,[4]; [10],0.17 Area %
same,Related Substances RRT 3.00,[4]; [10],99.13 Area %
same,Related Substances RRT 3.07,[4]; [10],0.13 Area %
same,Total Impurities,[4]; [10],0.87 Area %
same,Related Substances RRT 0.50,[4]; [11],0.20 Area %
same,Related Substances RRT 0.59,[4]; [11],0.04 Area %
same,Related Substances RRT 1.00,[4]; [11],99.13 Area %
same,Related Substances RRT 1.27,[4]; [11],0.34 Area %
same,Related Substances RRT 1.42,[4]; [11],0.17 Area %
same,"Related Substances, Lipoic Acid (RRT not given)",[4]; [11],0.13 Area %
same,Total Impurities,[4]; [11],0.87 Area %
same,Related Substances RRT 0.50,[4]; [12],0.20 Area %
same,Related Substances RRT 0.59,[4]; [12],0.04 Area %
same,Related Substances RRT 1.00,[4]; [12],99.13 Area %
same,Related Substances RRT 1.27,[4]; [12],0.34 Area %
same,Related Substances RRT 1.42,[4]; [12],0.17 Area %
same,Related Substances RRT 3.07 Lipoic Acid,[4]; [12],0.13 Area %
same,Total Impurities,[4]; [12],0.87 Area %
same,Related Substances RRT 0.51,[4]; [13],0.10 Area %
same,Related Substances RRT 0.68,[4]; [13],0.04 Area %
same,Related Substances RRT 1.00 API,[4]; [13],99.13 Area %
same,Related Substances RRT 1.65,[4]; [13],0.34 Area %
same,Related Substances RRT 2.28,[4]; [13],0.17 Area %
same,Related Substances RRT 4.05 Lipoic Acid,[4]; [13],0.13 Area %
same,Total Impurities,[4]; [13],0.87 Area %
same,Related Substances RRT 0.51,[4]; [14],0.10 Area %
same,Related Substances RRT 0.68,[4]; [14],0.04 Area %
same,Related Substances RRT 1.00 API,[4]; [14],99.13 Area %
same,Related Substances RRT 1.65,[4]; [14],0.34 Area %
same,Related Substances RRT 2.28,[4]; [14],0.17 Area %
same,Related Substances RRT 4.05 Lipoic Acid,[4]; [14],0.13 Area %
same,Total Impurities,[4]; [14],0.87 Area %
C[N+](C)(C)CCOC(=O)CCCC[C@@H]1CCSS1.[I-] [API (Lot# 011510)],"API Related Substances, Oxid. LACE RRT 0.48",[4]; [15],0.08%
same,"API Related Substances, Oxid. LACE RRT 0.52",[4]; [15],0.04%
same,"API Related Substances, RRT 1.74",[4]; [15],0.24%
same,"API Related Substances, RRT 2.00",[4]; [15],0.20%
same,"API Related Substances, Total Imp.",[4]; [15],0.56%
same,Appearance,[5],Complies
"C[N+](C)(C)CCOC(=O)CCCC[C@@H]1CCSS1 [LACE Chloride, Lipoic Acid Choline Ester Chloride]",ocular irritation,ocular surface; solution formulated at refrigerated temperatures,extremely irritating
same,permeated species,bovine calf cornea [6],somewhat more intact LACE permeated
same,equilibrium concentration of aggregates (% of the API peak),[2]; after dispersion with agitated stirring,< 1%
same,percent micellar species (% of the main LACE API Peak),[2]; formulated under argon and refrigerated conditions,8-10%
same,Hygroscopicity,[7],Highly hygroscopic
same,Solution pH,[7],7-7.5
same,logP,[7],< 2
same,solubility,[7]; in water,> 50 mg/mL
same,solubility,"[7]; organic solvent or mixture, in acetonitrile",> 4 mg/mL
